In US8679459B2, “B ring reduced-D ring oxidized tetrapyrrolic photosensitizers for photodynamic therapy and tumor imaging” (Health Research, Inc., priority 2008, dated 2014):

What was measured:
[1] = earlier work; cited from earlier work
Colon-26 cells = experiment: In vitro photosensitizing efficacy (MTT assay); type: cell-based; conditions: for in vitro photosensitizing efficacy among all the compounds tested (fraction survival vs. light dose): 24 h incubation, light 0-2 J/cm^2, MTT; for PDT efficacy compared to the free base analogs: In(III) complex vs. free base
Experimental: In graphs A-E, Y=fraction surviving and X=Light dose in J/cm^2. The numbers in the legends refer to compound number in FIGS. 7-12.
In vitro Photosensitizing Efficacy (MTT Assay]: Colon-26 cells were grown in α-DMEM with 10% fetal calf serum, and penicillin and streptomycin. Cells were maintained in 5% CO2 and 95% air at 100% humidity. For phototoxicity studies, cells were placed in 96-well plates at a density of 5×10^4 cells/well, in complete medium. 24 h later, compounds were added at variable concentration. After 24 incubation in the dark at 37° C., the cells were irradiated with a laser light from an argon pumped dye laser using flunces of 0-2 J/cm^2 at a dose of 5.6 mW/cm^2. After PDT, the cells were washed once, placed in complete medium, and incubated for 48 h. Cells were incubated with 10 μL/well of 4 mg/mL MTT for the final 4 h. The MTT-containing medium was removed, and 100 μL DMSO was added to solubilize the formazan crystals. The absorbance of the wells was read on a microtiter plate reader at a wavelength of 560 nm.^10 The results were plotted as fraction survival vs. the light dose used at the same concentrations. […] These compounds are currently being evaluated for in vivo efficacy, where the pharmacokinetic and the pharmacodynamic properties of the molecules will have a significant impact in efficacy.

Compound | PDT activity among alkyl ether analogs of pyropheophorbide-a [1] | in vitro photosensitizing efficacy among all the compounds tested (fraction survival vs. light dose) (Colon-26 cells) | PDT efficacy compared to the free base analogs (Colon-26 cells)
3-(1-hexyloxyethyl)-3-devinyl-pyropheophorbide-a [compound 3a] | most effective | – | –
CC[C@H]1/C2=C/c3c(C)c4c5[n]3[In]([Cl])[n]3/c(c(C)c(C(C)=O)/c3=C/C(=N2)[C@@H]1C)=C\C1=NC(=C\5CC4=O)/C(CCC(=O)OC)=C1C [compound 22] | – | most effective | enhanced PDT efficacy
CC[C@H]1/C2=C/c3c(C)c4c5[n]3[In]([Cl])[n]3/c(c(C)c(C(C)=O)/c3=C/C(=N2)[C@@H]1C)=C\C1=NC(=C\5CC4=O)/[C@@H](CCC(=O)OC)[C@@H]1C [compound 23] | – | most effective | –
CCCCCCOC(C)c1c(C)/c2[n]3/c1=C\C1=NC(=C\c4c(C)c5c([n]4[In]3[Cl])/C(=C3N=C(\C=2)C(C)=C\3CCC(=O)OC)CC5=O)/[C@H](CC)[C@H]1C (some centres unmarked) [compound 24] | – | – | enhanced PDT efficacy
